Assay results published in the supplement of paper PMC4862054.

Legend:
Conditions in all cases: incubation time: 72 h
MDA-MB-436 [1] = test: normalised response (% of control), CellTiter-Glo; higher = more viable cells (100 = DMSO, 0 = benzethonium chloride kill control)
In short: (§1)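 Plates were normalised with 0.1 % DMSO as 100 and a positive kill control as 0. Breast cancer cell lines in 20 µl suspension had been seeded into 384-well plates with compound at 5 concentrations in 10-fold steps over a compound-specific 10,000-fold range, incubated 72 h, and read for CellTox Green fluorescence (485/520 nm) followed by CellTiter-Glo luminescence. Each value is the normalised signal at a single concentration.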

CAL-85-1 [2] = test: as above
In short: as §1

SK-BR-3 = test: as above
In short: as §1

Hs578T [3] = test: as above
In short: as §1

HCC1937 [4] = test: as above
In short: as §1

MDA-MB-231 [5] = test: as above
In short: as §1

CAL-148 [6] = test: as above
In short: as §1

MDA-MB-453 [7] = test: as above
In short: as §1

HDQ-P1 [8] = test: as above
In short: as §1

HCC1143 [9] = test: as above
In short: as §1

MFM-223 [10] = test: as above
In short: as §1

BT-474 [11] = test: as above
In short: as §1

CAL-51 [12] = test: as above
In short: as §1

MCF-10A [13] = test: as above
In short: as §1

BT-549 [14] = test: as above
In short: as §1

MDA-MB-468 [15] = test: as above
In short: as §1

CAL-120 [16] = test: as above
In short: as §1

HCC1599 [17] = test: as above
In short: as §1

DU-4475 [18] = test: as above
In short: as §1

MDA-MB-436 [19] = test: normalised response (% of control), CellTox Green; higher = less cell death (100 = DMSO, 0 = benzethonium chloride kill control)
In short: as §1

CAL-85-1 [20] = test: as above
In short: as §1

Hs578T [21] = test: as above
In short: as §1

HCC1937 [22] = test: as above
In short: as §1

MDA-MB-231 [23] = test: as above
In short: as §1

MDA-MB-453 [24] = test: as above
In short: as §1

HDQ-P1 [25] = test: as above
In short: as §1

MFM-223 [26] = test: as above
In short: as §1

BT-474 [27] = test: as above
In short: as §1

CAL-51 [28] = test: as above
In short: as §1

MCF-10A [29] = test: as above
In short: as §1

BT-549 [30] = test: as above
In short: as §1

MDA-MB-468 [31] = test: as above
In short: as §1

CAL-120 [32] = test: as above
In short: as §1

HCC1599 [33] = test: as above
In short: as §1

DU-4475 [34] = test: as above
In short: as §1

CAL-148 [35] = test: as above
In short: as §1

HCC1143 [36] = test: as above
In short: as §1

Structure (SMILES)	normalised response (MDA-MB-436 [1])	normalised response (CAL-85-1 [2])	normalised response (SK-BR-3)	normalised response (Hs578T [3])	normalised response (HCC1937 [4])	normalised response (MDA-MB-231 [5])	normalised response (CAL-148 [6])	normalised response (MDA-MB-453 [7])	normalised response (HDQ-P1 [8])	normalised response (HCC1143 [9])	normalised response (MFM-223 [10])	normalised response (BT-474 [11])	normalised response (CAL-51 [12])	normalised response (MCF-10A [13])	normalised response (BT-549 [14])	normalised response (MDA-MB-468 [15])	normalised response (CAL-120 [16])	normalised response (HCC1599 [17])	normalised response (DU-4475 [18])	normalised response (MDA-MB-436 [19])	normalised response (CAL-85-1 [20])	normalised response (Hs578T [21])	normalised response (HCC1937 [22])	normalised response (MDA-MB-231 [23])	normalised response (MDA-MB-453 [24])	normalised response (HDQ-P1 [25])	normalised response (MFM-223 [26])	normalised response (BT-474 [27])	normalised response (CAL-51 [28])	normalised response (MCF-10A [29])	normalised response (BT-549 [30])	normalised response (MDA-MB-468 [31])	normalised response (CAL-120 [32])	normalised response (HCC1599 [33])	normalised response (DU-4475 [34])	normalised response (CAL-148 [35])	normalised response (HCC1143 [36])
COC(=O)c1ccc2c(c1)NC(=O)/C2=C(\Nc1ccc(N(C)C(=O)CN2CCN(C)CC2)cc1)c1ccccc1 [Nintedanib] (1000 nM)	99.4%	97.2%	86%	93.4%	89.4%	92%	94.6%	96.2%	69.1%	98.8%	59.2%	101%	83.2%	59.3%	83.5%	96.8%	85.2%	98.9%	87.6%	107%	107%	94.1%	80.7%	102%	103%	96%	89.4%	97.9%	105%	105%	111%	162%	101%	98.1%	98.5%		
COc1cc2/c(=N/c3ccc(Br)cc3F)nc[nH]c2cc1OCC1CCN(C)CC1 [Vandetanib] (100 nM)	91.2%	99.3%	77.7%	94.1%	90.6%	89.2%	96.5%	88%	83%	86.2%	82.5%	84.7%	83.3%	57.3%	89%	83.5%	94.4%	102%	90.1%	84.2%	98.6%	92%		85.4%	90.5%		98.8%	98%	70.7%	103%	102%	67.6%	83%	87%	92%	88.6%	85.6%
COc1cc(O)c2c(c1)/C=C/C[C@H](O)[C@H](O)C(=O)/C=C\C[C@H](C)OC2=O [(5Z)-7-Oxozeaenol] (1000 nM)	81.3%	42.8%	115%	91.1%	76.1%	72%	79.5%	118%	71.5%	96.9%	90.4%	71.5%	106%	56.9%	40.3%	56.5%	94.2%	92%	8.27%	112%	35.6%	64.6%	-12.2%	57.4%	103%	66.1%		99%	115%	103%	79.5%	140%	102%	103%	74.4%	15.5%	129%
S=P(N1CC1)(N1CC1)N1CC1 [Thio-TEPA] (5000 nM)	97.4%	97.2%	105%	108%	96.4%	96.2%	93%	109%	99.5%	96.1%	105%	94.4%	68.9%	100%	91.7%	100%	96.5%	112%	102%	94.6%	95.8%	85.2%	109%	109%	101%	96%	98.8%	100%	29.6%	109%	109%		100%	93.5%	99.2%	102%	62.1%
CNC(=O)c1ccc(N2C(=S)N(c3ccc(C#N)c(C(F)(F)F)c3)C(=O)C23CCC3)cc1F [RD162] (1000 nM)	98.2%	96.7%	110%	104%	94.6%	101%	103%	98.9%	94.9%	98%	102%	95.3%	115%	102%	93.7%	97.3%	99%	126%	103%	111%	118%	85.7%	83.1%	108%	90.8%	114%		96.8%	107%	120%	101%	96.5%	101%	96%	104%	102%	
CNC(=O)c1ccc(N2C(=S)N(c3ccc(C#N)c(C(F)(F)F)c3)C(=O)C2(C)C)cc1F [Enzalutamide] (1000 nM)	92.8%	91.7%	100%	106%	96.8%	95.7%	104%	95.7%	95.9%	101%	97.7%	102%	74.1%	107%	96.8%	92.6%	95.9%	107%	103%	89.5%	105%	96.4%		90.5%	111%	54.2%		96%	93.4%	107%	87%	131%	104%	90.2%	107%	65.4%	117%
CCOC(=O)CCNc1cc(N2CCc3ccccc3CC2)nc(-c2ccccn2)n1 [GSK-J4] (10 nM)	95.8%	93.1%	97.9%	97%	93.1%	95.1%	92.8%	91.9%	97.4%	92.6%	99.4%	97.3%	102%	102%	101%	97.8%	102%	104%	99%																		
CNC(=O)c1ccc(N2C(=S)N(c3ccc(C#N)c(C(F)(F)F)c3)C(=O)C2(C)C)cc1F [Enzalutamide] (10 nM)	99.4%	93.5%	98%	101%	91.3%	94.5%	107%	99%	100%	103%	98.6%	103%	124%	106%	91.4%	98.7%	95.3%	95.8%	101%																		
CO[C@H]1C[C@@H]2CC[C@@H](C)[C@@](O)(O2)C(=O)C(=O)N2CCCC[C@H]2C(=O)O[C@H]([C@H](C)C[C@@H]2CC[C@@H](OP(C)(C)=O)[C@H](OC)C2)CC(=O)[C@H](C)/C=C(\C)[C@@H](O)[C@@H](OC)C(=O)[C@H](C)C[C@H](C)/C=C/C=C/C=C/1C [Ridaforolimus] (10 nM)	76%	69.9%	62.6%	61.6%	68.4%	87.1%	64.5%	63.6%	81.2%	65%	72.8%	89.1%	59.9%	89.5%	56%	59.8%	66.3%	109%	77%	88.2%	94.9%	49.6%	110%	122%	104%		100%	99.1%	110%	109%	134%	124%	91.5%	103%	99.8%	93.3%	73%
N#Cc1ccc(COC[C@H]2O[C@@H](n3c(NCc4ccc(Cl)c(Cl)c4)nc4c(N)ncnc43)[C@H](O)[C@@H]2O)cc1 (10 nM)	108%	98.1%	132%	101%	98.7%	106%	115%	106%	97.5%	107%	113%	107%	76.3%	101%	103%	101%	97.2%	92.3%	106%																		
